Measured values as given in US9156853B2, “AKT inhibitor compounds for treatment of cancer” (ALMAC DISCOVERY LIMITED, priority 2012, dated 2015).
Structures can show the parent of a compound that is named as a salt.

Tests used:
AKT1 = target: T1, AKT1 (Homo sapiens, UniProt P31749); test: AKT Kinase Assay (IMAP fluorescent polarisation), AKT1 isoform; type: biochemical; conditions: for IC50: activated AKT1, FAM Crosstide substrate; for potency against AKT1 compared with the comparator compound: compared with the non-hydroxylated Compound A, F or L
T1 construct: purchased SignalChem
T1 sequence (P31749 whole entry, canonical isoform): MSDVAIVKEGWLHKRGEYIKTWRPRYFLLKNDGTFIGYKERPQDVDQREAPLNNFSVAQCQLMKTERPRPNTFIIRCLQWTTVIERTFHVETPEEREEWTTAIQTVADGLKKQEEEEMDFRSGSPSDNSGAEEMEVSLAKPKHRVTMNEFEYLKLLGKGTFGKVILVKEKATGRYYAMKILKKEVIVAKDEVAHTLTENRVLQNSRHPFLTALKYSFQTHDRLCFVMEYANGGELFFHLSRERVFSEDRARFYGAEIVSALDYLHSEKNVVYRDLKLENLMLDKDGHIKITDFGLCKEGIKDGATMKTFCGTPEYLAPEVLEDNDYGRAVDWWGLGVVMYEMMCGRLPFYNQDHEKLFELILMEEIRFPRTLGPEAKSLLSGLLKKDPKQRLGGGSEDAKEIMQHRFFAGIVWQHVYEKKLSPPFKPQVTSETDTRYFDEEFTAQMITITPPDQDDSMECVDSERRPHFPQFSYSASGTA
Procedure: (§1) Testing of the compounds was performed using an AKT Kinase Assay:
(§2) Activated AKT isoforms 1, 2 and 3 were assayed utilising a 5′ FAM Crosstide (Seq. GRPRTSSFAEG-OH). The extent of kinase phosphorylation was determined by fluorescent polarisation using IMAP progressive binding reagent, which introduces binding beads which allow the reagent to specifically bind to phosphate residues via covalent co-ordination complex bonds.
(§3) iMAP binding solution stops Crosstide/kinase interaction and specifically binds phosphorylated substrates. The degree of phosphorylation is determined by fluorescent polarisation (excitation 485 nm; emission 528 nm) or the reduction in speed of rotation of the excited substrate.
(§4) The following materials were used in the assay: • a) Activated AKT isoforms (SignalChem.) dissolved in Complete Reaction buffer at a predetermined concentration selected so that the assay was carried out in the linear range. • b) AKT substrate peptide: FAM Crosstide (R7110) Molecular Devices, diluted in complete reaction buffer. • c) iMAP Progressive Screening Express Kit (R8127) Molecular Devices • d) Complete Reaction Buffer containing 0.1% BSA, 10 mM Tris-HCl, 10 mM MgCl2, 0.05% NaN3 and 0.01% phosphate free BSA, 1 mM DTT • e) Progressive Binding Solution containing 75% Buffer A, 25% Buffer B and low volume Binding Reagent which contains the binding entity for the assay • f) ATP diluted in complete reaction buffer • g) Black polystyrene 384 well assay plates (Nunc). • h) Biotek Synergy 4 Hybrid Plate reader.
(§5) 5 μl of test compound was dissolved in DMSO (Sigma Aldrich) and serially diluted in complete reaction buffer to give a fourteen point half log dose response and plated into 384 well black plates. The compound was incubated at room temperature with activated AKT isoform (5 μl) at the predetermined concentration, for 45 min.
(§6) 2.5 μl of ATP solution mixed with 2.5 μl of AKT substrate peptide (FAM Crosstide (R7110) Molecular Devices) were dispensed into each well and the plate centrifuged at 1000 rpm for 20 seconds to ensure homogenous mixing of reagents. The reaction mix was incubated in the dark for 1 h at room temperature.
(§7) The kinase reaction was stopped by the addition of Progressive Binding Solution and the mixture allowed to equilibrate for 1 h in the dark, at room temperature.
(§8) The fluorescent polarisation generated in each well was determined using a […] Synergy 4 Hybrid plate reader. In brief, each reaction solution was excited at 485 nm with the emission measured at 528 nm in both the parallel and perpendicular pathway.
(§9) The polarisation value generated in each well was calculated by Gen5 software (Biotek) and the % inhibition of kinase activity compared to vehicle control was calculated via GraphPad Prism. IC50 values for each compound were calculated by non-linear regression analysis using Prism software.
(§10) All plates were internally controlled by two methods. Firstly, by calculating the signal:noise ratio; based on kinase polarisation without inhibitor and polarisation generated by complete reaction buffer in the absence of activated kinase. Secondly by determining IC50 values generated by known inhibitors of the AKT isoforms.
(§11) The data was analysed using GraphPad Prism, with IC50 values generated using non-linear regression of the data set.

AKT2 = target: T2, AKT2 (Homo sapiens, UniProt P31751); test: AKT Kinase Assay (IMAP fluorescent polarisation), AKT2 isoform; type: biochemical; conditions: for IC50: activated AKT2, FAM Crosstide substrate; for potency against AKT2 compared with the comparator compound: compared with the non-hydroxylated Compound A, F or L
T2 construct: purchased SignalChem
T2 sequence (P31751 whole entry, canonical isoform): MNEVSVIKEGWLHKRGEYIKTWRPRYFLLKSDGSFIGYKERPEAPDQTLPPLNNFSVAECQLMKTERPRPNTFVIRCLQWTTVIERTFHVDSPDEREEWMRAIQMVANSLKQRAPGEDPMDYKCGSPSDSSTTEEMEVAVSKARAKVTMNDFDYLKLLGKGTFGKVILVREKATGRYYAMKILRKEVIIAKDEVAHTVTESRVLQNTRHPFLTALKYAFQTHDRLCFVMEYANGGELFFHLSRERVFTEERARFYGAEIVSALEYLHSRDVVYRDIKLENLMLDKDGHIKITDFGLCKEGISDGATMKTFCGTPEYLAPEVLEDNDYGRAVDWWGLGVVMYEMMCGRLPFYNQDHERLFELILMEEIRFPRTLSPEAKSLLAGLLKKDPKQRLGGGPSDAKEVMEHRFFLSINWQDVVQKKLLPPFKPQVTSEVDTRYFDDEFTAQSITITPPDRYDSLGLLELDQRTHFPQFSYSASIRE
Procedure: as §1, §2, §3, §4, §5, §6, §7, §8, §9, §10, §11

AKT3 = target: T3, AKT3 (Homo sapiens, UniProt Q9Y243); test: AKT Kinase Assay (IMAP fluorescent polarisation), AKT3 isoform; type: biochemical; conditions: for IC50: activated AKT3, FAM Crosstide substrate; for potency against AKT3 compared with the comparator compound: compared with the non-hydroxylated Compound A, F or L
T3 construct: purchased SignalChem
T3 sequence (Q9Y243 whole entry, canonical isoform): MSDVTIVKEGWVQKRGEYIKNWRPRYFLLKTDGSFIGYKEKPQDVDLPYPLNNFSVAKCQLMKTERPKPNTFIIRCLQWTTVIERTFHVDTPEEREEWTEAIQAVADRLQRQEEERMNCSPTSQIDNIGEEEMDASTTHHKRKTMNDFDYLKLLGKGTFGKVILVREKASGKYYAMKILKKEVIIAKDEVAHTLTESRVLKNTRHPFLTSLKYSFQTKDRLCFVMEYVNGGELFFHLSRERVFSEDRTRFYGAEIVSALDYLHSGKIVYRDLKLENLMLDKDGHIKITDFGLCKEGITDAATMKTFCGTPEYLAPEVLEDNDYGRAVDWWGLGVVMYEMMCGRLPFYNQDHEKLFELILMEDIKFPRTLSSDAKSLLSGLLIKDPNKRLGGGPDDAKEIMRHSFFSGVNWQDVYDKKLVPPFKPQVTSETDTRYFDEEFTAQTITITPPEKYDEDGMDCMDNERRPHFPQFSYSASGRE
Procedure: as §1, §2, §3, §4, §5, §6, §7, §8, §9, §10, §11

[1] = tested on: pAKT (Ser473) in PC3 cells; test: Inhibition of pAKT in PC3 cells; type: cell-based; conditions: Homo sapiens, PC-3, 24 h incubation, read-out: inhibition of pAKT in PC3 cell lines, IC50
Procedure: Analysis of Compound Effects on AKT Signalling Pathways: Inhibition of pAKT in PC3 Cells
PC3 cells were seeded overnight in 96 well plates followed by serum starvation for 4 h. Increasing concentrations of AKT inhibitor, in complete medium (RPMI 1640), were added to the cells and incubated for a further 24 h.
The cells were fixed in paraformaldehyde, permeabilised and blocked in BSA, followed by incubation with pAKT (Ser473) and total AKT antibody overnight (R&D Systems). Secondary antibody mixture was added, followed by a combination of fluorescent substrates added for a final incubation.
Fluorescent intensities for each antibody were read at 540/600 nm and 360/450 nm respectively on a Synergy 4 plate reader. The percentage change in fluorescent intensity was plotted against log concentration of inhibitor; to generate IC50 values (GraphPad Prism).

SMILES | IC50 (AKT1) [µM] | potency against AKT1 compared with the comparator compound (AKT1) | IC50 (AKT2) [µM] | potency against AKT2 compared with the comparator compound (AKT2) | IC50 (AKT3) [µM] | potency against AKT3 compared with the comparator compound (AKT3) | IC50 [1] [µM] | selectivity for AKT2 over AKT1 and AKT3 compared with compound A (AKT2; compared with compound A)
Cn1c(-c2ccc([C@]3(N)C[C@](C)(O)C3)cc2)c(-c2ccccn2)c2c(=O)n(CC(F)(F)F)cnc21 [Compound 15, 6-(4-((1r,3r)-1-Amino-3-hydroxy-3-methylcyclobutyl)phenyl)-7-methyl-5-(pyridin-2-yl)-3-(2,2,2-trifluoroethyl)-3H-pyrrolo[2,3-d]pyrimidin-4(7H)-one.TFA] | > 1.5 | – | > 0.1 | – | > 6 | – | – | –
C[C@]1(O)C[C@](N)(c2ccc(-c3sc4ncn(CC(F)(F)F)c(=O)c4c3-c3ccccn3)cc2)C1 [Compound 19, 6-(4-((1s,3s)-1-Amino-3-hydroxy-3-methylcyclobutyl)phenyl)-5-(pyridin-2-yl)-3-(2,2,2-trifluoroethyl)thieno[2,3-d]pyrimidin-4(3H)-one.HCl] | > 1.5 | – | > 0.1 | – | > 6 | – | – | –
Cn1c(-c2ccc([C@]3(N)C[C@@](C)(O)C3)cc2)c(-c2ccccn2)c2c(=O)n(CC(F)(F)F)cnc21 [Compound 18, 6-(4-((1 s,3s)-1-Amino-3-hydroxy-3-methylcyclobutyl)phenyl)-7-methyl-5-(pyridin-2-yl)-3-(2,2,2-trifluoroethyl)-3H-pyrrolo[2,3-d]pyrimidin-4(7H)-one.HCl] | > 1.5 | – | > 0.1 | – | > 6 | – | – | –
C[C@]1(O)C[C@@](N)(c2ccc(-c3oc4ncn(CC(F)(F)F)c(=O)c4c3-c3ccccn3)cc2)C1 [Compound 14, 6-(4-((1r,3r)-1-Amino-3-hydroxy-3-methylcyclobutyl)phenyl)-5-(pyridin-2-yl)-3-(2,2,2-trifluoroethyl)furo[2,3-d]pyrimidin-4(3H)-one.HCl] | > 1.5 | – | > 0.1 | – | > 6 | – | – | –
Cn1c(-c2ccc([C@]3(N)C[C@](C)(O)C3)cc2)c(-c2cccnc2)c2c(=O)n(CC(F)(F)F)cnc21 [Compound 16, 6-(4-((1r,3r)-1-Amino-3-hydroxy-3-methylcyclobutyl)phenyl)-7-methyl-5-(pyridin-3-yl)-3-(2,2,2-trifluoroethyl)-3H-pyrrolo[2,3-d]pyrimidin-4(7H)-one.TFA] | > 1.5 | – | > 0.1 | – | > 6 | – | – | –
C[C@]1(O)C[C@@](N)(c2ccc(-c3oc4ncn(CC(F)(F)F)c(=O)c4c3-c3ccncc3)cc2)C1 [Compound 13, 6-(4-((1r,3r)-1-Amino-3-hydroxy-3-methylcyclobutyl)phenyl)-5-(pyridin-4-yl)-3-(2,2,2-trifluoroethyl)furo[2,3-d]pyrimidin-4(3H)-one.TFA] | > 1.5 | – | ≤ 0.02 | improved potency | > 6 | – | – | greater selectivity
C[C@]1(O)C[C@@](N)(c2ccc(-c3sc4ncn(CC(F)(F)F)c(=O)c4c3-c3ccccn3)cc2)C1 [Compound 20, 6-(4-((1r,3r)-1-Amino-3-hydroxy-3-methylcyclobutyl)phenyl)-5-(pyridin-2-yl)-3-(2,2,2-trifluoroethyl)thieno[2,3-d]pyrimidin-4(3H)-one.HCl] | > 1.5 | – | > 0.1 | – | > 6 | – | – | –

More lines, now with the values ahead:

IC50 (AKT1) [µM] | potency against AKT1 compared with the comparator compound (AKT1) | IC50 (AKT2) [µM] | potency against AKT2 compared with the comparator compound (AKT2) | IC50 (AKT3) [µM] | potency against AKT3 compared with the comparator compound (AKT3) | IC50 [1] [µM] | selectivity for AKT2 over AKT1 and AKT3 compared with compound A (AKT2; compared with compound A) | SMILES
≤ 0.3 | improved potency | ≤ 0.02 | improved potency | 1 to 6 | improved potency | – | – | N[C@]1(c2ccc(-c3sc4ncn(CC(F)(F)F)c(=O)c4c3-c3ccccc3)cc2)C[C@H](O)C1 [Compound 9, 6-(4-((1s,3s)-1-Amino-3-hydroxycyclobutyl)phenyl)-5-phenyl-3-(2,2,2-trifluoroethyl)thieno[2,3-d]pyrimidin-4(3H)-one.HCl]
0.3 to 1.5 | improved potency | ≤ 0.02 | improved potency | 1 to 6 | improved potency | ≤ 0.5 | – | Cn1c(-c2ccc([C@]3(N)C[C@@H](O)C3)cc2)c(-c2ccccc2)c2c(=O)n(CC(F)(F)F)cnc21 [Compound 7, 6-(4-((1s,3s)-1-Amino-3-hydroxycyclobutyl)phenyl)-7-methyl-5-phenyl-3-(2,2,2-trifluoroethyl)-3H-pyrrolo[2,3-d]pyrimidin-4(7H)-one.HCl]
> 1.5 | – | > 0.1 | – | > 6 | – | – | – | Cn1c(-c2ccc([C@]3(N)C[C@](C)(O)C3)cc2)c(-c2ccncc2)c2c(=O)n(CC(F)(F)F)cnc21 [Compound 17, 6-(4-((1r,3r)-1-Amino-3-hydroxy-3-methylcyclobutyl)phenyl)-7-methyl-5-(pyridin-4-yl)-3-(2,2,2-trifluoroethyl)-3H-pyrrolo[2,3-d]pyrimidin-4(7H)-one.HCl]
0.3 to 1.5 | – | ≤ 0.02 | improved potency | 1 to 6 | improved potency | – | – | Cn1c(-c2ccc([C@]3(N)C[C@@](C)(O)C3)cc2)c(-c2ccccc2)c2c(=O)n(CC(F)(F)F)cnc21 [Compound 10, 6-(4-((1s,3s)-1-Amino-3-hydroxy-3-methylcyclobutyl)phenyl)-7-methyl-5-phenyl-3-(2,2,2-trifluoroethyl)-3H-pyrrolo[2,3-d]pyrimidin-4(7H)-one.HCl]
> 1.5 | – | 0.02 to 0.1 | – | > 6 | – | – | – | Cn1c(-c2ccc([C@]3(N)C[C@H](O)C3)cc2)c(-c2ccccc2)c2c(=O)n(CC(F)(F)F)cnc21 [Compound 11, 6-(4-((1r,3r)-1-Amino-3-hydroxycyclobutyl)phenyl)-7-methyl-5-phenyl-3-(2,2,2-trifluoroethyl)-3H-pyrrolo[2,3-d]pyrimidin-4(7H)-one.HCl]
0.3 to 1.5 | – | 0.02 to 0.1 | – | > 6 | – | – | – | Cn1c(-c2ccc(C3(N)CCC3)cc2)c(-c2ccccc2)c2c(=O)n(CC(F)(F)F)cnc21 [Compound L, reference compound]
0.3 to 1.5 | – | 0.02 to 0.1 | improved potency | 1 to 6 | improved potency | – | – | N[C@]1(c2ccc(-c3sc4ncn(CC(F)(F)F)c(=O)c4c3-c3ccccc3)cc2)C[C@@H](O)C1 [Compound 12, 6-(4-((1r,3r)-1-Amino-3-hydroxycyclobutyl)phenyl)-5-phenyl-3-(2,2,2-trifluoroethyl)thieno[2,3-d]pyrimidin-4(3H)-one.HCl]
0.3 to 1.5 | – | > 0.1 | – | > 6 | – | – | – | NC1(c2ccc(-c3sc4ncn(CC(F)(F)F)c(=O)c4c3-c3ccccc3)cc2)CCC1 [Compound F, reference compound]
≤ 0.3 | improved potency | 0.02 to 0.1 | improved potency | 1 to 6 | improved potency | – | – | C[C@]1(O)C[C@](N)(c2ccc(-c3sc4ncn(CC(F)(F)F)c(=O)c4c3-c3ccccc3)cc2)C1 [Compound 8, 6-(4-((1s,3s)-1-Amino-3-hydroxy-3-methylcyclobutyl)phenyl)-5-phenyl-3-(2,2,2-trifluoroethyl)thieno[2,3-d]pyrimidin-4(3H)-one.HCl]
